# Data from patent publication US7714014B2, “Targeting GLI proteins in human cancer by small molecules” (The Regents of the University of California, priority 2005, dated 2010).
# Tests used:
# A549 (NSCLC) = assay: Apoptosis analysis (Annexin V FITC, flow cytometry); type: cell-based, human; conditions: 3 days
# Protocol: (§1) Apoptosis was analyzed by using an Annexin V FITC Apoptosis Detection Kit (Biosource, Camarillo, Calif.), according to the manufacturer's protocol. After treatment with different small molecule compounds at various concentrations for about 3 days, cells were harvested by trypsinization, stained and immediately analyzed by flow cytometry (FACScan; Decton Dickinson, Franklin Lake, N.J.). Early apoptotic cells with exposed phosphatidylserine but intact cell membranes will bind to Annexin V-FITC, but not propidium iodide (PI). Cells in necrotic or late apoptotic stages will be labeled with both Annexin V-FITC and PI. “% apoptotic cells” or “% apoptosis” refers to the combined early and late apoptotic cells.
# Flow cytometry was also used to examine apoptosis in several NSCLC cell lines after treatment with small molecule compounds of the invention.
# Dose titration experiments of small molecule compound FN1-8 was performed using the NSCLC cell lines A549, H358, and H322. A 549, H358, and H322 cells were plated in 6-well plates and incubated with DM SO (control) or 7.5 μM, 10 μM, 15 μM, 20 μM, and 30 μM of FN1-8, respectively, for 3 days. A dramatic and dose-dependent cell killing in these cell lines was observed when FN1-8 was added at 15 μM or more. FN1-8 induced cell killing in A549 and […] at slightly lower concentrations than in H322 cells (data not shown). After 3 days, approximately 28% of the A549 cells and 58% of H358 underwent apoptosis when incubated with 20 μM FN1-8 (Table 3).
# [1] = test system: mesothelioma cell lines H290 and 211H; assay: Cell survival assay (crystal violet); type: cell-based, human; conditions: 30 μM, 3 days
# Protocol: (§2) Typically, the small molecule compounds of the present invention were dissolved in DMSO at a concentration of 30 mM. The small molecule compounds were then tested under cell culture conditions at different concentrations ranging from 0, 10, 30, 50, to 100 uM. To determine cell survival after treatment, the cells were incubated with the small molecule compounds in 6-well plates for about 3 days. After removal of the cell culture medium, 1-ml of 0.5% crystal violet solution (prepared in 20% ethanol and 20% methanol) was added to stain the cells for 5 min. Then the crystal violet solution was rinsed clean with tap water. Cell survival was estimated based on the density of crystal stained plates.
# (§3) Cell killing was also tested using mesothelioma cell lines H290, 211H, MS1 and REN and different doses of the small molecule compounds FN1-5 and FN1-8. Cells were plated in 6-well plates and incubated with 1, 10, and 30 μM of each compound for 3 days, as described herein. […] (data not shown).
# [2] = test system: mesothelioma cell lines MS-1 and REN; assay: Cell survival assay (crystal violet); type: cell-based, human; conditions: 1, 10, and 30 μM, 3 days
# Protocol: as §2, §3
# normal human renal cells = assay: Cell survival assay (crystal violet); type: cell-based; conditions: FN1-5 30 and 50 μM; FN1-8 10, 30, and 50 μM; 3 days
# Protocol: as §2
# The cell killing effect of small molecule compounds FN1-5, and FN1-8 at different doses was examined in normal human renal cells. Normal renal cells were plated in 6-well plates and incubated with 30 and 50 μM of compound FN1-5 and 10, 30, and 50 μM FN1-8 for 3 days, in the same manner as described herein for similar other experiments.
# [3] = test system: Primary cultured NSCLC cells; assay: Apoptosis analysis (Annexin V FITC, flow cytometry); type: cell-based, human; conditions: 3 days
# Protocol: Fresh cancer tissue and adjacent normal tissue from patients undergoing curative primary resection of their tumors were collected at the time of surgery (IRB approval H8714-15319-040), and immediately snap-frozen in liquid nitrogen. These tissue samples were kept at −170° C. in a liquid nitrogen freezer until further use. Primary tissue cultures were prepared as follows: Fresh cancer tissue was obtained with consent from patients undergoing resection, cut into small pieces (1-2 mm in diameter), and then digested with Collagenase A (Roche Applied Science, Indianapolis, Ind.) at room temperature for 2 hours according to manufacture's protocol. Single cells from the digestion were spun down and the cell pellets were washed twice using RPMI 1640 supplemented with 10% fetal bovine serum, penicillin (100 IU/ml) and streptomycin (100 μg/ml). Then, the cells were resuspended in the same medium and cultured in 6-well plates at 37° C. in a humid incubator with 5% CO2 until they were ready for further treatments.
# as §1
# Flow cytometry was also used to examine apoptosis induced by molecule compounds of the invention. in primary cultured NSCLC cells freshly made from tissue samples. […] For example, app.
# [4] = test system: human esophageal cancer cell lines SEG-1, TE-7, BIC-1, and OE21; assay: Cell survival assay (crystal violet); type: cell-based; conditions: for cell killing: 50 μM
# Protocol: as §2
# The cell-based cytotoxicity assay described herein was used to determine the effect of small molecule compounds FN1-5 and FN1-8 in the human esophageal cancer cell lines SEG-1, TE-7, BIC-1, and OE21. Viability of these cells was analyzed after treatment with 10, 30 and 50 μM FN1-5 or FN1-8.
compound,measurement,setting,value
"O=C(NCCCCCO)C1C(c2ccccc2)=NN(c2ccccc2)C1c1ccccc1 (centres unmarked) [FN1-5, N-(5-Hydroxypentyl)-1,3,5-triphenyl-4,5-dihydro-pyrazole-4-carboxyamide]",% of apoptotic cells,"A549 (NSCLC); A549, 10 μM",9.4%
same,% of apoptotic cells,"A549 (NSCLC); A549, 100 μM",30.0%
same,cell killing,[1],Dramatic cell killing
same,cell killing,[2],no noticeable effect
same,cell killing effect in normal cells,normal human renal cells,No noticeable cell killing effect
same,% of apoptotic cells,[3]; 30 μM,11.2%
same,% of apoptotic cells,[3]; 50 μM,19.8%
same,cell killing,[4],dramatic cell killing
"O=C(NCCc1ccc(O)cc1)C1C(c2ccccc2)=NN(c2ccccc2)C1c1ccccc1 (centres unmarked) [FN1-8, N-(2-(4-Hydroxyphenyl)ethyl)-1,3,5-triphenyl-4,5-dihydro-pyrazole-4-carboxyamide]",% of apoptotic cells,"A549 (NSCLC); A549, 10 μM",12.5%
same,cell killing,[1],Dramatic cell killing
same,cell killing,[2],no noticeable effect
same,cell killing effect in normal cells,normal human renal cells,No noticeable cell killing effect
same,% of apoptotic cells,[3]; 10 μM,9.8%
same,% of apoptotic cells,[3]; 30 μM,13.1%
same,% of apoptotic cells,[3]; 50 μM,58.0%
same,cell killing potency compared with FN1-5,[4],more potent
same,cell killing,[4],dramatic cell killing
